Where two headings read alike, the source gives them in different places.
Assays:
[1] = target: T1, human D2long receptor (Homo sapiens, UniProt P14416); assay: radioligand binding with [^3H]spiperone, D2long; conditions: read-out: Ki D2lo
T1 construct: expressed in transfected cells; host or cells: Chinese hamster ovary (CHO) cells, membranes
Description: (§1) For the determination of binding affinity to the receptors of the dopamine D2 family membranes were established carrying the human D2long, D2short, D3 or D4.4 receptor subtype expressed in Chinese hamster ovary cell lines. In principle, the binding experiments started when incubating an appropriate amount of membrane with the radioligand [^3H]spiperone and the particular test compounds diluted in a wide range of different concentrations from subnanomolar up to micromolar.

[2] = target: T2, human D2short receptor (Homo sapiens, UniProt P14416); assay: radioligand binding with [^3H]spiperone, D2short; conditions: read-out: Ki D2sh
T2 construct: expressed in transfected cells; host or cells: Chinese hamster ovary (CHO) cells, membranes
T2 sequence (P14416 1-414 isoform P14416-2): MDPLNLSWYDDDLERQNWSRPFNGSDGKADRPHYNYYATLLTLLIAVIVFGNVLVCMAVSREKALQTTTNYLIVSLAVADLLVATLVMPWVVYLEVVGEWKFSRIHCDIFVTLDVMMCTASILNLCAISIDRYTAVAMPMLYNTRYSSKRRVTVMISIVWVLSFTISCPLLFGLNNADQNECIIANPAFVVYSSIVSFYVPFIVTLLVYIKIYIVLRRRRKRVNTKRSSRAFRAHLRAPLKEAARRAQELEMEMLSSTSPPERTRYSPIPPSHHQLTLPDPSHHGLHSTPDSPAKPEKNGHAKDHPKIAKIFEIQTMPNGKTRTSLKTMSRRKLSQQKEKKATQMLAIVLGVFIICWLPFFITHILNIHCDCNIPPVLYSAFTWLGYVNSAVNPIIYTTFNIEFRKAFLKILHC
Description: as §1

[3] = target: T3, human D3 receptor (Homo sapiens, UniProt P35462); assay: radioligand binding with [^3H]spiperone, D3
T3 construct: expressed in transfected cells; host or cells: Chinese hamster ovary (CHO) cells, membranes
T3 sequence (P35462 whole entry): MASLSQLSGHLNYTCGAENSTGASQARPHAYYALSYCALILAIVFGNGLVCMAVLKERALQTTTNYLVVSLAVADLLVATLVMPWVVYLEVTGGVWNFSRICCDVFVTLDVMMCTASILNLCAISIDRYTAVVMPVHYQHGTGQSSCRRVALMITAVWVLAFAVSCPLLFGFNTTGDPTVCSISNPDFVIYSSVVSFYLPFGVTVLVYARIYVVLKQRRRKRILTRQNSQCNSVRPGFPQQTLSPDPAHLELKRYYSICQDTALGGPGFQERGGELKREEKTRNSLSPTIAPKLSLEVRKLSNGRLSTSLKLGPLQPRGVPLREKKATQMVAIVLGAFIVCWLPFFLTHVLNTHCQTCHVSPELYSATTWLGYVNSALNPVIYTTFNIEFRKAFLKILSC
Description: as §1

[4] = target: T4, human D4.4 receptor (Homo sapiens, UniProt P21917); assay: radioligand binding with [^3H]spiperone, D4.4
T4 construct: expressed in transfected cells; host or cells: Chinese hamster ovary (CHO) cells, membranes
T4 sequence (P21917 1-419): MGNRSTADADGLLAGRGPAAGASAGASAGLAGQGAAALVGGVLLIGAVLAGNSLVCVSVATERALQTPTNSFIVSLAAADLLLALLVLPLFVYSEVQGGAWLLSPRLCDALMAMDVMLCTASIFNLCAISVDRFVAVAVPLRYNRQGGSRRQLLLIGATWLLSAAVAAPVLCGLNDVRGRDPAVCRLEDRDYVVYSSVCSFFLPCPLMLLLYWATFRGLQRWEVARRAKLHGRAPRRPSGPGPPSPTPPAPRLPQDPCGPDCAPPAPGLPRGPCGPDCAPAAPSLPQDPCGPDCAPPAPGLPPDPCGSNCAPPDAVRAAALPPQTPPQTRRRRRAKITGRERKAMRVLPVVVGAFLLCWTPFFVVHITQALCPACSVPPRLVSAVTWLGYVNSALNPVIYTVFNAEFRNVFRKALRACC
Description: as §1

[5] = target: T5, 5-HT1A receptor (Sus scrofa, UniProt A0A4X1UTF5); assay: radioligand binding, porcine cortical membranes, [^3H]8-OH-DPAT and [^3H]WAY 100635
T5 construct: membrane preparations from porcine cortical material; from tissue; host or cells: porcine cerebral cortex membranes
T5 sequence (A0A4X1UTF5 1-422): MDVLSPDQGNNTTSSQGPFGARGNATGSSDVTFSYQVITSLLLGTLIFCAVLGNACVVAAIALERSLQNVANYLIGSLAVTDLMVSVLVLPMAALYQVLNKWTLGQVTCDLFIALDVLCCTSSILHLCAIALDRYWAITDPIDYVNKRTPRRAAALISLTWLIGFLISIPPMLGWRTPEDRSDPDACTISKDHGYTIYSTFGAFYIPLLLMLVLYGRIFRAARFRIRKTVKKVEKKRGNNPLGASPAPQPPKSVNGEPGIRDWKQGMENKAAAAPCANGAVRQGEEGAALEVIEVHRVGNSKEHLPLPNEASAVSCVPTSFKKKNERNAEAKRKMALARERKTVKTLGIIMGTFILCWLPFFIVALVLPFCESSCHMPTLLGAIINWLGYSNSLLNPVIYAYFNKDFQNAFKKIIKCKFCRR

[6] = target: T6, 5-HT2 receptor (Sus scrofa, UniProt P50129); assay: radioligand binding, porcine cortical membranes, [^3H]ketanserin
T6 construct: membrane preparations from porcine cortical material; from tissue; host or cells: porcine cerebral cortex membranes
T6 sequence (P50129 whole entry): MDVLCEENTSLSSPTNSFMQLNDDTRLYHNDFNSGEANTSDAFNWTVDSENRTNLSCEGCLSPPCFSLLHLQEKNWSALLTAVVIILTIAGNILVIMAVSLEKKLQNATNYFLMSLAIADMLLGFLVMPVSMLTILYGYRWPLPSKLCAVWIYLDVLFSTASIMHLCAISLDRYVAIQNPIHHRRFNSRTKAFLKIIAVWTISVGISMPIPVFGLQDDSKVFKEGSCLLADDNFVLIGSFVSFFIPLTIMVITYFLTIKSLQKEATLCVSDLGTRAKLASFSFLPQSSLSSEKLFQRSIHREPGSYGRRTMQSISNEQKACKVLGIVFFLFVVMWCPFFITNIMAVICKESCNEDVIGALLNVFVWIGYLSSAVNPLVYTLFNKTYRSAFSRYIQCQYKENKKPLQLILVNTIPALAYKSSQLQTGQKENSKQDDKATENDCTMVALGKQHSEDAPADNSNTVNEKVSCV

[7] = target: dopamine D2short receptor (Homo sapiens, UniProt P14416); assay: [^35S]GTPγS-incorporation assay, intrinsic activity
Chain of dopamine D2short receptor (P14416 1-414 isoform P14416-2): as the sequence (P14416 1-414 isoform P14416-2) above

[8] = [^3H]spiperone, CHO membranes, mean of 2 to 4 experiments
[9] = porcine cortical membranes, [^3H]ketanserin
[10] = read-out: D2short: [^35S]GTPγS intrinsic activity, % activity of quinpirol
[11] = ether alkylene linker compounds
[12] = read-out: D2short: [^35S]GTPγS intrinsic activity

T1 sequence (P14416 whole entry): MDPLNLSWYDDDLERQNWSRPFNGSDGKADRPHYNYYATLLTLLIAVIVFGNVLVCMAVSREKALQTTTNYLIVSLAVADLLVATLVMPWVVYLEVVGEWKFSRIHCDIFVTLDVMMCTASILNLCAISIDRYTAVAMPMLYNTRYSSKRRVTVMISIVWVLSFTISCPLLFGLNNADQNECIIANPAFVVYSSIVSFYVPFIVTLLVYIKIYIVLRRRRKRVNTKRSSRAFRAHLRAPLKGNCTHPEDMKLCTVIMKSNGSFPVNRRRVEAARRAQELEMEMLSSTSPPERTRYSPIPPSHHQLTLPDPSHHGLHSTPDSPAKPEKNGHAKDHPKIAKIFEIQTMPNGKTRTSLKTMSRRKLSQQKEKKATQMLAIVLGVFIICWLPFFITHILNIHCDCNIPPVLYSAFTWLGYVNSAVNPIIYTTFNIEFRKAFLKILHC

Structure (SMILES) | Ki [1, 8] [nM] | Ki [2, 8] [nM] | Ki [3, 8] [nM] | Ki [4, 8] [nM] | Ki ([5]; porcine cortical membranes) [nM] | Ki [6, 9] [nM] | melting point [°C] | Emax [7, 10] [%] | Ki [1, 11] [nM] | Ki [2, 11] [nM] | Ki [3, 11] [nM] | Ki [4, 11] [nM] | Ki [5, 11] [nM] | Ki [6, 11] [nM] | ratio D2lo/D3 ([3]; ratio of Ki values) | Emax [7, 12] [%]
COc1ccccc1N1CCN(CCCCOc2ccn3nnnc3c2)CC1 [Example E97, 7-[4-[4-(2-Methoxyphenyl)piperazin-1-yl]butoxy]tetrazolo[1,5-a]pyridine] | < 30 | < 30 | < 30 | < 30 | < 30 | > 3000 | 124 |  |  |  |  |  |  |  |  | 
O=Cc1cnn2ccc(OCCCCN3CCN(c4ccccc4Cl)CC3)cc12 [Example E23, 5-[4-[4-(2-Chlorophenyl)piperazin-1-yl]butoxy]pyrazolo[1,5-a]pyridine-3-carbaldehyde] | < 30 | < 30 | < 30 | < 30 | < 30 | 301 to 3000 | 116 | 15 to 40 |  |  |  |  |  |  |  | 
O=Cc1cnn2ccc(OCCCCN3CCN(c4cccc([N+](=O)[O-])c4)CC3)cc12 [Example E69, 5-[4-[4-(3-Nitrophenyl)piperazin-1-yl]butoxy]pyrazolo[1,5-a]pyridine-3-carbaldehyde] | < 30 | < 30 | 30 to 300 | 30 to 300 | 30 to 300 | 301 to 3000 | 178 | 15 to 40 |  |  |  |  |  |  |  | 
Nc1cccc(N2CCN(CCCCOc3ccn4nccc4c3)CC2)c1 [Example E66, 5-[4-[4-(3-Aminophenyl)piperazin-1-yl]butoxy]pyrazolo[1,5-a]pyridine] |  |  |  |  |  |  | 86 |  |  |  |  |  |  |  |  | 
Clc1cccc(N2CCN(CCCCOc3ccn4nnnc4c3)CC2)c1Cl [Example E63, 7-[4-[4-(2,3-Dichlorophenyl)piperazin-1-yl]butoxy]tetrazolo[1,5-a]pyridine] | < 30 | < 30 | < 30 | < 30 | 30 to 300 | 30 to 300 | 138 |  |  |  |  |  |  |  |  | 
Clc1ccccc1N1CCN(CCCCOc2ccn3ncc(I)c3c2)CC1 [Example E50, 5-[4-[4-(2-Chlorophenyl)piperazin-1-yl]butoxy]-3-iodo-pyrazolo[1,5-a]pyridine] |  |  |  |  | 30 to 300 | 301 to 3000 | 94 |  |  |  |  |  |  |  |  | 
CC(=O)Nc1cccc(N2CCN(CCCCOc3ccn4ncc(C=O)c4c3)CC2)c1 [Example E70, N-[3-[4-[4-(3-Formylpyrazolo[1,5-a]pyridin-5-yloxy)butyl]piperazin-1-yl]phenyl]acetamide] | 30 to 300 | 30 to 300 | 301 to 3000 | 301 to 3000 | < 30 | > 3000 |  | 15 to 40 |  |  |  |  |  |  |  | 
COc1ccccc1N1CCN(CCCCOc2ccn3ncc(Br)c3c2)CC1 [Example E43, 3-Bromo-5-[4-[4-(2-methoxyphenyl)piperazin-1-yl]butoxy]pyrazolo[1,5-a]pyridine] | < 30 | < 30 | < 30 | < 30 | < 30 | 301 to 3000 |  | 15 to 40 | 4.9 | 3.3 | 3.5 | 3.2 | 10 | 880 |  | 
COc1ccccc1N1CCN(CCCCOc2cccc3ccnn23)CC1 [Example E58, 7-[4-[4-(2-Methoxyphenyl)piperazin-1-yl]butoxy]pyrazolo[1,5-a]pyridine] | 30 to 300 | 30 to 300 | 30 to 300 | < 30 | < 30 | 301 to 3000 |  | 15 to 40 |  |  |  |  |  |  |  | 
COc1ccccc1N1CCN(CCCCOc2cc3ccccn3n2)CC1 [Example E2, 2-[4-[4-(2-Methoxyphenyl)piperazin-1-yl]butoxy]pyrazolo[1,5-a]pyridine] | < 30 | < 30 | < 30 | < 30 | < 30 | 301 to 3000 |  | < 15 | 10 | 16 | 12 | 17 | 1.3 | 910 | 0.83 | 
Clc1ccccc1N1CCN(CCCCOc2cc3ccccn3n2)CC1 [Example E3, 2-[4-[4-(2-Chlorophenyl)piperazin-1-yl]butoxy]pyrazolo[1,5-a]pyridine] | < 30 | < 30 | < 30 | 30 to 300 | < 30 | 301 to 3000 |  |  |  |  |  |  |  |  |  | < 15
O=[N+]([O-])c1cccc(N2CCN(CCCCOc3ccn4nccc4c3)CC2)c1 [Example E65, 5-[4-[4-(3-Nitrophenyl)piperazin-1-yl]butoxy]pyrazolo[1,5-a]pyridine] |  |  |  |  |  |  | 73 |  |  |  |  |  |  |  |  | 
Clc1ccccc1N1CCN(CCCCOc2ccn3ncc(Br)c3c2)CC1 [Example E44, 3-Bromo-5-[4-[4-(2-chlorophenyl)piperazin-1-yl]butoxy]pyrazolo[1,5-a]pyridine] |  |  |  |  |  |  | 84 |  |  |  |  |  |  |  |  | 15 to 40
Clc1ccccc1N1CCN(CCCCOc2ccn3nnnc3c2)CC1 [Example E98, 7-[4-[4-(2-Chlorophenyl)piperazin-1-yl]butoxy]tetrazolo[1,5-a]pyridine] | < 30 | < 30 | < 30 | < 30 | < 30 | 301 to 3000 | 101 |  |  |  |  |  |  |  |  | 
Clc1ccccc1N1CCN(CCCCOc2cccc3ccnn23)CC1 [Example E59, 7-[4-[4-(2-Chlorophenyl)piperazin-1-yl]butoxy]pyrazolo[1,5-a]pyridine] | 30 to 300 | 30 to 300 | < 30 | < 30 | 30 to 300 | 30 to 300 |  |  |  |  |  |  |  |  |  | 15 to 40
CC(=O)c1cnn2ccc(OCCCCN3CCN(c4ccccc4Cl)CC3)cc12 [Example E29, 1-(5-[4-[4-(2-Chlorophenyl)piperazin-1-yl]butoxy]pyrazolo[1,5-a]pyridine-3-yl)ethanone] | < 30 | < 30 | < 30 | < 30 | < 30 | 30 to 300 |  | < 15 |  |  |  |  |  |  |  | 
